In patent US20240132511A1, “TREATMENTS OF PRADER-WILLI SYNDROME” (Neuren Pharmaceuticals Limited, priority 2021, published 2024):

Columns and labels:
Magel2-null mice [1] = assay: Nest building quality; format: in vivo, mouse; design: key: **** = p < 0.0001; ns = not significant
Excerpt: (§1) The mouse locus 7qB4/B5 (syntenic with the Prader-Willi region at chromosome position 15q11-q13 in humans) encompasses the cluster of paternally-expressed imprinted genes Magel2, Ndn, Mkrn3, and Peg12. As maternal imprinting silences the Magel2 allele, only the paternally inherited Magel2 allele is expressed. Heterozygous females were bred with wild-type males (or C57BL/6J inbred males) to maintain the line; as the resulting offspring will have no abnormal phenotype. To obtain “Magel2-null” offspring (both maternal and paternal Magel2 alleles are non-functional), wild-type females are bred with heterozygous males; allowing maternal transmission of the imprinted/silenced wild-type allele and paternal transmission of the Magel2-lacZ (null) allele. Magel2-null mice have disrupted circadian rhythm and metabolism, total activity, food consumption, weight before weaning, and fertility in both sexes, as well as increased adiposity after weaning and altered behavior. Magel2-null mice on this C57BL/6J genetic background recapitulate Prader-Willi syndrome. Because the genetic mutation in the Magel2-null animals is the same as the mutation in human beings, studies in Magel2-null mice are reasonably predictive of effects of compounds in human beings.
(§2) In vivo experiments were conducted in C57BL/6-Magel2tm1Stw/J (Magel2-null) mice at age P60 and their wild-type littermates during the light phase (littermates that were wild-type for Magel2 were used as controls). Ten mice per treatment group were used for studies 1 and 2, and six mice per group for study 3. In study 1: C57BL/6-Magel2tm1Stw/J (Magel2-null) mice were assessed on behavioral assays. Study 2 tested the efficacy of cG-2-AllylP in treating obesity and insulin levels in Magel2-null mice. Study 3 tested the IGF-1 level in Magel2-null mice. Because human beings have the same genetic abnormality, studies of Magel2-null mice are reasonably predictive of effects of compounds of Formulas I, II, III and IV in human beings with Prader-Willi Syndrome.
(§3) Testing was performed during the light phase of the circadian cycle, with the order of testing being determined by the principle of conducting the most stressful tests last. Assays were designed to reproduce and expand on the original behavioral characterization of Magel2-null mice. Magel2-null and wild-type control mice were dosed once daily for 6 weeks prior to testing and tested 30 minutes following a dose of cG-2-AllylP (NNZ2591). Study groups and the treatment matrix are described in Table 2 below.
For small rodents, nests are important in heat conservation as well as reproduction and shelter. Nest building is an activity needed for mice to raise their offspring and is an indicator of social adaptation and activities of daily living. Typically, changes in nesting behaviors, such as failure to create a nest, indicate a change in health or welfare. Nesting behavior is sensitive to many genetic mutations underlying pathological disease states.
Nesting behavior is impaired in Magel2-null mice. Therefore, to determine if cG-2-AllylP might restore the quality of nest building, a series of studies were carried out.

Magel2-null mice [2] = assay: Novel Object Recognition (NOR); format: in vivo, mouse; design: key: **** = p < 0.0001; ns = not significant
Excerpt: as §1, §2, §3
The NOR test is used to evaluate cognition, based on the tendency for mice to spend more time exploring a novel object that a familiar object. Magel2-null mice display a lack of discrimination between known and novel objects.

Magel2-null mice [3] = assay: Insulin levels in female Magel2-null mice; format: in vivo, mouse; design: key to Insulin, significance: **** = p < 0.0001; ns = not significant
Method: as §2, §3
Prader-Willi Syndrome is associated with metabolic and hormonal abnormalities in humans. Magel2-null mice recapitulate some of the metabolic and hormonal aspects of humans with Prader-Willi Syndrome. Experiments were conducted to determine if cG-2-AllylP could have a normalizing effect in metabolic and hormonal aspects.
Because female Magel2-null mice present a significant increase in body weight compared with their littermate wild-type controls, female Magel2-null mice were used for this study.
Insulin was measured for each group.

[4] = tested on: subjects with Prader-Willi syndrome; assay: Proposed randomized, double-blind placebo controlled study in subjects with Prader-Willi syndrome; format: in vivo, human
Excerpt: For the proposed study thirty subjects with Prader-Willi syndrome are recruited. Subjects are females and males aged between 4 and 20 years (Mean=12.1 SD=4.4). All subjects have confirmed loss of function in the 15q11-q13 region on the paternal copy of chromosome 15 and also meet diagnostic criteria for Prader-Willi syndrome based on assessment of behavioral and somatic symptoms. The majority of subjects (72%) are being treated with rhGH at screening. Subjects are instructed that concomitant medications are to be stable for at least six weeks prior to study.
The study is a randomized, double-blind placebo controlled parallel study with subjects randomized 1:1:1 to placebo, 6 mg/kg or 12 mg/kg of Cyclo-L-Glycyl-L-2-Allylproline is to be administered as an oral liquid twice daily for eighty-four days.
Subjects are tested at baseline using the following instruments: the Hyperphagia Questionnaire for Clinical Trials (HQ-CT), the Clinical Global Impression of Severity (CGI-S), the Caregiver Global Impression of Change (CaGI-I), the Aberrant Behavior Checklist (ABC) and ABC Subscales, the Social Responsiveness Scale, the Repetitive Behavior Scale-Revised (RBS-R), the PWS Anxiety and Distress Questionnaire (PADQ) and the Children's Yale-Brown Obsessive-Compulsive Scale (CY-BOCS). In addition, the following measurements are made at baseline: Body Fat Assessment (BFA), fasting blood glucose, blood lipids (HDL, LDL, VLDL, triglycerides), serum IGF-1 (total, bound to IGF-1 Binding Protein-3 [IGFBP-3]), fasting insulin and the Homeostatic Model Assessment for Insulin Resistance (HOMA-IR).
The effect of treatment with Cyclo-L-Glycyl-L-2-Allylproline is analyzed by conducting a repeated analysis of covariance (ANCOVA) on change from baseline scores for each of the measures plus the Clinical Global Impression of Change (CGI-I). Safety is assessed using caregiver reports of adverse events, a panel of standard laboratory tests and electrocardiograms (ECG).

[5] = Magel2-null + NNZ2591 (100 mg/kg) vs. Magel2-null + NNZ2591 (200 mg/kg)
[6] = Magel2-null + Vehicle vs. Magel2-null + NNZ2591 (200 mg/kg)
[7] = WT + NNZ2591 (100 mg/kg) vs. Magel2-null + NNZ2591 (100 mg/kg)
[8] = WT + NNZ2591 (200 mg/kg) vs. Magel2-null + NNZ2591 (200 mg/kg)
[9] = WT + Vehicle vs. WT + NNZ2591 (100 mg/kg)
[10] = WT + Vehicle vs. WT + NNZ2591 (200 mg/kg)
[11] = Magel2-null + NNZ2591 200 mg/kg
[12] = 6 mg/kg or 12 mg/kg oral liquid twice daily for eighty-four days
[13] = 6 mg/kg or 12 mg/kg oral liquid twice daily for eighty-four days vs placebo

Which “Nesting, Sidak's multiple comparisons test, Summary” value (shortened to “Nesting … Summary”) (Magel2-null mice [1]; [5]) does the source give for `C=CCC12CCCN1C(=O)CNC2=O` [cG-2-AllylP, (8aS)-Allyl-hexahydropyrrolo[1,2-a]pyrazine-1,4-dione] here?
Its value is “ns”.

And the “Nesting … Summary” value (Magel2-null mice [1]; Magel2-null + Vehicle vs. Magel2-null + NNZ2591 (100 mg/kg))?
Its value is “**** (**** = p < 0.00001.)”.

And the “Nesting … Summary” value (Magel2-null mice [1]; [6])?
The value was “**** (**** = p < 0.00001.)”.

What about the “Nesting … Summary” value (Magel2-null mice [1]; [7]) of the same compound?
Its value is “ns”.

What about the “Nesting … Summary” value (Magel2-null mice [1]; [8]) of the same compound?
Its value is “ns”.

And the “Nesting … Summary” value (Magel2-null mice [1]; [9])?
The value was “ns”.

And the “Nesting … Summary” value (Magel2-null mice [1]; [10])?
Its value is “ns”.

And the “Novel object recognition, Sidak's multiple comparisons test, Summary” value (shortened to “Novel object recognition”) (Magel2-null mice [2]; [5])?
The value was “ns”.

And the “Novel object recognition” value (Magel2-null mice [2]; [6])?
The value was “**** (**** = p < 0.0001)”.

What about the “Novel object recognition” value (Magel2-null mice [2]; [7]) of the same compound?
The value was “ns”.

What about the “Novel object recognition” value (Magel2-null mice [2]; [8]) of the same compound?
The value was “ns”.

And the “Novel object recognition” value (Magel2-null mice [2]; [9])?
The value was “ns”.

And the “Novel object recognition” value (Magel2-null mice [2]; [10])?
The value was “ns”.

And the “Insulin (mean ± SEM)” value (Magel2-null mice [3]; Magel2-null + NNZ2591 100 mg/kg)?
The value was 143 pM.

And the “Insulin (mean ± SEM)” value (Magel2-null mice [3]; [11])?
The value was 119 pM.

And the “Insulin, significance” value (Magel2-null mice [3]; [11])?
Its value is “(ns)”.

And the “Insulin (mean ± SEM)” value (Magel2-null mice [3]; WT + NNZ2591 100 mg/kg)?
The value was 112 pM.

What about the “Insulin (mean ± SEM)” value (Magel2-null mice [3]; WT + NNZ2591 200 mg/kg) of the same compound?
Its value is 115 pM.

And the “Duration and severity of adverse events” value [4, 12]?
The value was “short duration and mild severity”.

What about the “Serious Adverse Events” value [4, 12] of the same compound?
The value was “No Serious Adverse Events are reported”.

What about the “Incidence of treatment-emergent adverse events” value [4, 13] of the same compound?
Its value is “no difference in the incidence of treatment-emergent adverse events between placebo and either dose”.

What about the “Laboratory tests and ECG measures” value [4, 13] of the same compound?
The value was “no treatment-related pattern of abnormalities on laboratory tests or ECG measures”.
